What was measured:
Format in all cases: in vivo
[1] = tested on: Wistar rats after chronic unpredictable mild stress; test: CUMS model: Social Interaction test; conditions: FQSE 0.5 mg/kg i.n.; diazepam 0.5 mg/kg i.p.; 4 injections; vs control non-stressed rats
Protocol: (§1) During stress, the animals were placed in individual cells and exposed to stressful conditions each day for 26 days. Two stressors were used daily, applied in the following order: • Day 1. 10 am-6 pm, rats were placed in a cold room for an hour. From 6 PM to 10 am the lights were turned on and off every 2 hours. • Day 2. 10 am-6 pm, cage tilted to 45°. From 6 PM to 10 am water deprivation. • Day 3. 10 am-6 pm, stroboscopic light. From 6 PM to 10 am the light was left on overnight. • Day 4. 10 am-6 pm, wet bedding. From 6 PM to 10 am the animals were put in a small mouse cage. • Day 5. 10 am-6 pm, no bedding. From 6 PM to 10 am the lights were turned on and off every 2 hours. • Day 6. 10 am-6 pm, a new rat was placed in the cage (6-month-old). From 6 PM to 10 am the light was left on overnight. • Day 7. 10 am-6 pm, white noise. From 6 PM to 10 am a stroboscopic light was turned on at night. • Day 8-26. Repetition of previously used stressors in the specified sequence.
Experimental substances were administered daily starting from the 58-59 day of the experiment. […]
To assess the social activity and depressive state of the animals, a test that evaluates a social interaction of rodents was used. […] Within 10 minutes the duration and number of social contacts with the juvenile male and number of threatening and aggressive contacts were recorded. […]

BALB/C mice [2] = test: Open Field test in mice; conditions: Diazepam 0.75 mg/kg
Protocol: (§2) After an adaptation period, the test substance was intraperitoneally injected into mice. Behavioral parameters were measured in 30 minutes after injection. The tests were administered as follows: day 1—the Open field test, day 3—the Elevated plus maze test, day 5—the Marble burying test, days 12-13—the Porsolt swim (two-day modification) test.
In the Open field test, the installation is an arena with a diameter of 63 cm, illuminated by bright light (500 lux) (OpenScience, Russia). The following parameters were measured during 5-minute experiment: a total distance (cm), a time of motion (if the speed is more than 5 cm/s), an immobility (if the speed is less than 0.2 cm/sec), a mean and maximum velocity, and a number of episodes of motor activity and “freezing”. The same set of parameters, as well as latent period and time duration of stay, were recorded for the central sector of the arena. Defecations and rearing (animal raise upright on hind limbs) were assessed visually (File and Wardill (1975) Validity of head-dipping as a measure of exploration in a modified hole-board. Psychopharmacol., 44, 53-59). The test is designed to measure the level of motor and exploratory activity.
All substances were injected intraperitoneally in a volume of 10 μl of solution per 1 gram of animal weight 30 minutes prior to behavioral testing.

zebrafish (Danio rerio) = test: Shoaling behavior test in zebrafish; conditions: ip, DKTE 1 mg/kg, vs control
Protocol: The tested substances were injected into the zebrafish intraperitoneally (ip) using an insulin syringe (0.5 ml, 30 g) 10 minutes before the test. The saline solution (0.9% NaCl) was used as a solvent. Anesthesia and immobilization of the animals were achieved by placing them in water at a temperature of 10° C. Control group fish received intraperitoneal injections of an equivalent volume of solvent, also after going through a pre-cooling procedure.
A Plexiglas container with a removable partition (shown in FIG. 4) was used as a setup for investigating the shoaling behavior of zebrafish. A shoal of 5 adult Danio rerio specimens was placed into in the small compartment; and the test fish was placed in a large compartment. Diffused lighting in this installation was provided by the usual lighting of the room (about 200 Lx).
The shoaling behavior test was performed as described in Parker et al., 2014. (Parker et al. (2014) The utility of zebrafish to study the mechanisms by which ethanol affects social behavior and anxiety during early brain development. Prog. Neuro-Psychopharmacology Biol. Psychiatry. 94-100). The video recording began simultaneously with placing the zebrafish in the set-up and recorded for 5 minutes. The videos were processed using RealTimer (OpenScience Ltd., Moskow, Russia). During the processing of the records, the residence time and the number of visits to the three conventional zones of the aquarium wall (near the “shoal” in the middle of the aquarium, and near the opposite side; all three were equal in size) were recorded.

[3] = tested on: Wistar rats after chronic unpredictable mild stress; test: CUMS model: Novelty Suppressed Feeding Test
Protocol: as §1
Experimental substances were administered daily starting from the 58-59 day of the experiment. The administration took place 30 minutes before the start of behavioral testing. On days when there were no tests, the substances were administered in the morning.
To assess anxiety and food motivation, a test for eating behavior in a new environment was used. […] The time to start eating and the duration of consumption were recorded. […]

BALB/C mice [4] = test: Porsolt swim test (two-day modification) in mice; conditions: ip; Diazepam 0.75 mg/kg
Protocol: as §2
In the Porsolt Swim test, two tests were conducted in two days. The installation is a transparent cylinder, 30 cm in height, 10 cm in diameter, filled with water (temperature about 21-23° C.) to the mark of 25 cm height. On the first day each animal was placed into the cylinder for 10 minutes. Behavioral parameters were not registered. On the second day, the animals were placed into the cylinder for 5 minutes. The following parameters were measured: duration of active (vigorous movements of all limbs) and passive (weak movements of hind limbs) swimming, as well as immobility (immobilization) (Porsolt et al. (1977) Behavioral despair in mice: a primary screening test for antidepressants. Arch Int Pharmacodyn Ther. 229(2):327-36). After each test, the mice were placed into a heated cell to dry.

SMILES: CN1C(=O)CN=C(c2ccccc2)c2cc(Cl)ccc21 [Diazepam]
- duration of social contacts [1]: significant decrease
- total distance (BALB/C mice [2]; ip 30 min before, FQSE 1 mg/kg): 2542.2±179.77 cm
- time the animals spent in the center (BALB/C mice [2]; ip): not significantly different
- number of center entries (BALB/C mice [2]; ip, FQSE 1 mg/kg): not significantly different
- number of rearings (BALB/C mice [2]; ip, FQSE 1 mg/kg): 10.8±2.1
- time spent in the compartment near the shoal (zebrafish (Danio rerio); diazepam 1.25 mg/kg, ACZ-10 0.6 mg/kg, BCM-7 5 mg/kg): statistically significant decrease
- time spent outside the shoaling compartment (near the wall opposite to the shoal) (zebrafish (Danio rerio); diazepam 5 mg/kg, FQSE 10 mg/kg): increase
- result obtained in NSFT (11 administrations) ([3]; CUMS, FQSE 0.5 mg/kg, Diazepam): anxiolytic effect
- latency to start eating ([3]; FQSE 0.5 mg/kg i.n., diazepam 0.5 mg/kg i.p., 11 days): significant decrease in latency
- tested parameters (duration of active and passive swimming, immobility time) (BALB/C mice [4]): did not lead to the changes in any tested parameter

Source: US12178838B2, “Synthetic neuromodulatory peptides” (Lactocore, Inc., priority 2019, dated 2024)
